From patent US10759783B2, “Biaryl inhibitors of Bruton'S tyrosine kinase” (BIOGEN MA INC., priority 2013, dated 2020) come the findings set out here.

One test concerns the target T1, BTK enzyme (Homo sapiens, UniProt Q06187).
T1 construct: purchased Upstate 14-552
Briefly: In vitro BTK kinase assay: BTK-POLYGAT-LS assay. It counts as biochemical. Particulars: ATP 10 μM, read-out: IC50 (10uMATP). In outline:
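Human BTK activity was measured with final 10 μM ATP and 100 nM polyGAT substrate in pH 7.5 Tris buffer with 10 mM MgCl2, DTT, Triton X-100 and casein.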

The target of test [1] is BTK (phospho-BTK) in human whole blood (Homo sapiens, UniProt Q06187). Kind of test: In vitro PD assay in human whole blood (pBTK assay).
BTK (phospho-BTK) in human whole blood, sequence (Q06187 whole entry): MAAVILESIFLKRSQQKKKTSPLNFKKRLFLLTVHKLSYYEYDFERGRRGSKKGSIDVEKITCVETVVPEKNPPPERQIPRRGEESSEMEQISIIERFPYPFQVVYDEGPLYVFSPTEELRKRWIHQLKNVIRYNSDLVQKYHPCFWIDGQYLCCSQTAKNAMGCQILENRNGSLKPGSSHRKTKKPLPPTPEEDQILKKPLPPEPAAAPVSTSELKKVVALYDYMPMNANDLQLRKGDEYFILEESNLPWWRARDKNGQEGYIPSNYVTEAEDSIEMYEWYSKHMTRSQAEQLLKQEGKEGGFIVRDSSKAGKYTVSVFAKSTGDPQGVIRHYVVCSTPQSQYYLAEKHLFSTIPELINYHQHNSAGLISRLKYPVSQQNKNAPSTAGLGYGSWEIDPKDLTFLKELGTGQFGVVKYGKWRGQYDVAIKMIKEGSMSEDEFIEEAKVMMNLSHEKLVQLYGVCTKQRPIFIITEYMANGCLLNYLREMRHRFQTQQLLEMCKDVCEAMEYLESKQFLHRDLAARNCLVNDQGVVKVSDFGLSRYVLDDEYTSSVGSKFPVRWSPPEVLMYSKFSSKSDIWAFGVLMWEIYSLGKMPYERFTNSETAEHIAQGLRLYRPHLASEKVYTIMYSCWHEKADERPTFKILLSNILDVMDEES

T1 sequence (Q06187 whole entry): as above

Take `Cc1cc(-c2ccnc(Nc3cnn(C)c3)n2)ccc1CN1Cc2cc(C3CC3)sc2C1=O` [Example I-13, 2-cyclopropyl-5-(2-methyl-4-(2-((1-methyl-1H-pyrazol-4-yl)amino)pyrimidin-4-yl)benzyl)-4H-thieno[2,3-c]pyrrol-6(5H)-one]: the IC50 (as a rule, the concentration needed to halve the response being measured) on BTK enzyme is < 10 nM; in test [1], 1500 to 10000 nM.

As for `Cc1cc(-c2ccnc(Nc3cnn(C4CCN(C)CC4)c3)n2)ccc1CNC(=O)N1CC(OC(C)(C)C)C1` [Example I-302, 3-tert-butoxy-N-[[2-methyl-4-[2-[[1-(1-methyl-4-piperidyl)pyrazol-4-yl]amino]pyrimidin-4-yl]phenyl]methyl]azetidine-1-carboxamide], the IC50 at BTK enzyme is < 10 nM; in test [1], < 500 nM.

For `Cc1cc(-c2cc(Nc3cc4n(n3)CCNC4)ncn2)ccc1CNC(=O)N1CC(OC(C)C)C1` [Example I-272, 3-isopropoxy-N-[[2-methyl-4-[6-(4,5,6,7-tetrahydropyrazolo[1,5-a]pyrazin-2-ylamino)pyrimidin-4-yl]phenyl]methyl]azetidine-1-carboxamide], the 50% inhibitory concentration (IC50) at BTK enzyme was < 10 nM; in test [1] it was < 500 nM.

Regarding `Cc1cc(-c2ccnc(Nc3cnn(CCN)c3)n2)ccc1CNC(=O)c1cnc(C(C)(C)C)s1` [Example I-50, N-(4-(2-((1-(2-aminoethyl)-1H-pyrazol-4-yl)amino)pyrimidin-4-yl)-2-methylbenzyl)-2-(tert-butyl)thiazole-5-carboxamide], the IC50 at BTK enzyme is < 10 nM; in test [1], < 500 nM.

Regarding `Cc1cc(-c2ccnc(Nc3cnn(C4CNC4)c3)n2)ccc1CNC(=O)c1cnc(C(C)(C)C)s1` [Example I-42, N-(4-(2-((1-(azetidin-3-yl)-1H-pyrazol-4-yl)amino)pyrimidin-4-yl)-2-methylbenzyl)-2-(tert-butyl)thiazole-5-carboxamide], the IC50 on BTK enzyme is < 10 nM; in test [1], < 500 nM.

Consider `CC(C)(C)OC1CN(C(=O)NC2CCCCc3cc(-c4ccnc(Nc5cnn6c5CCC6)n4)ccc32)C1` (centres unmarked) [Example I-182, 3-(tert-butoxy)-N-(2-(2-((5,6-dihydro-4H-pyrrolo [1,2-b]pyrazol-3-yl)amino)pyrimidin-4-yl)-6,7,8,9-tetrahydro-5H-benzo[7]annulen-5-yl)azetidine-1-carboxamide], for which the IC50 at BTK enzyme was < 10 nM; in test [1], < 500 nM.

As for `CC(C)(C)OC1CN(C(=O)N[C@@H]2CCCCc3cc(-c4ccnc(Nc5cnn(CCO)c5)n4)ccc32)C1` [Example I-229, (R)-3-(tert-butoxy)-N-(2-(2-((1-(2-hydroxyethyl)-1H-pyrazol-4-yl)amino)-pyrimidin-4-yl)-6,7,8,9-tetrahydro-5H-benzo[7]annulen-5-yl)azetidine-1-carboxamide], the IC50 at BTK enzyme is < 10 nM; in test [1], < 500 nM.

For the molecule `Cc1cc(-c2cc(Nc3cc4n(n3)CCN(C)C4=O)ncn2)ccc1CNC(=O)c1cnc(C(C)(C)C)s1` [Example I-278, 2-tert-butyl-N-[[2-methyl-4-[6-[(5-methyl-4-oxo-6,7-dihydropyrazolo[1,5-a]pyrazin-2-yl)amino]pyrimidin-4-yl]phenyl]methyl]thiazole-5-carboxamide], the IC50 was < 10 nM at BTK enzyme and < 500 nM in test [1].

Turning to `CC(C)OC1CN(C(=O)NC2CCN(CC(F)(F)F)Cc3cc(-c4ccnc(Nc5cnn(C)c5)n4)ccc32)C1` (centres unmarked) [Example I-187, 3-isopropoxy-N-(8-(2-((1-methyl-1H-pyrazol-4-yl)amino)pyrimidin-4-yl)-2-(2,2,2-trifluoroethyl)-2,3,4,5-tetrahydro-1H-benzo[c]azepin-5-yl)azetidine-1-carboxamide], the IC50 on BTK enzyme was < 10 nM; in test [1], < 500 nM.

Take `CN1CCC(n2cc(Nc3nccc(-c4ccc(CNC(=O)N5CC(OC(C)(C)C)C5)c(C(F)(F)F)c4)n3)cn2)CC1` [Example I-200, 3-(tert-butoxy)-N-(4-(2-((1-(1-methylpiperidin-4-yl)-1H-pyrazol-4-yl)amino)pyrimidin-4-yl)-2-(trifluoromethyl)benzyl)azetidine-1-carboxamide]: the IC50 at BTK enzyme is < 10 nM; in test [1] it was < 500 nM.

Take `Cc1cc(-c2ccnc(Nc3cnn(C[C@H](N)C(=O)O)c3)n2)ccc1CNC(=O)c1cnc(C(C)(C)C)s1` [Example I-130, (S)-2-amino-3-(4-((4-(4-((2-(tert-butyl)thiazole-5-carboxamido)methyl)-3-methylphenyl)pyrimidin-2-yl)amino)-1H-pyrazol-1-yl)propanoic acid]: the IC50 was < 10 nM at BTK enzyme and < 500 nM in test [1].

For the molecule `Cc1cc(-c2ccnc(Nc3cnn(C)c3)n2)ccc1CN1CCc2c(cnn2C(C)(C)C)C1=O` [Example I-192, 1-(tert-butyl)-5-(2-methyl-4-(2-((1-methyl-1H-pyrazol-4-yl)amino)pyrimidin-4-yl)benzyl)-6,7-dihydro-1H-pyrazolo[4,3-c]pyridin-4(5H)-one], the IC50 is < 10 nM on BTK enzyme and < 500 nM in test [1].

Regarding `Cc1cc(-c2cc(Nc3cc4n(n3)CCN(C)C4)ncn2)ccc1CNC(=O)N1CC(OC(C)C)C1` [Example I-121, 3-isopropoxy-N-(2-methyl-4-(6-((5-methyl-4,5,6,7-tetrahydropyrazolo[1,5-a]pyrazin-2-yl)amino)pyrimidin-4-yl)benzyl)azetidine-1-carboxamide], the IC50 at BTK enzyme was < 10 nM; in test [1] it was < 500 nM.

Regarding `Cc1cc(-c2cc(Nc3ccc(N4CCN(C)CC4)cn3)ncn2)ccc1CNC(=O)c1cnn(C(C)(C)C)c1` [Example I-225, 1-(tert-butyl)-N-(2-methyl-4-(6-((5-(4-methylpiperazin-1-yl)pyridin-2-yl)amino)pyrimidin-4-yl)benzyl)-1H-pyrazole-4-carboxamide], the results for the IC50 (at BTK enzyme; in test [1]) were < 10 nM and < 500 nM, respectively.

In the case of `Cc1cc(-c2cc(Nc3cc4n(n3)CCN(C)C4)ncn2)ccc1CNC(=O)c1cnc(C(C)(C)C)s1` [Example I-63, 2-(tert-butyl)-N-(2-methyl-4-(6-((5-methyl-4,5,6,7-tetrahydropyrazolo[1,5-a]pyrazin-2-yl)amino)pyrimidin-4-yl)benzyl)thiazole-5-carboxamide], the IC50 was < 10 nM at BTK enzyme and < 500 nM in test [1].

For the molecule `Cc1cc(-c2ccnc(Nc3cnn(C4CC4)c3)n2)ccc1CNC(=O)N1CCC(C(C)(C)C)C1` (centres unmarked) [Example I-308, 3-tert-butyl-N-[[4-[2-[(1-cyclopropylpyrazol-4-yl)amino]pyrimidin-4-yl]-2-methyl-phenyl]methyl]pyrrolidine-1-carboxamide], the values for the IC50 (on BTK enzyme; in test [1]) were < 10 nM and < 500 nM, respectively.

Consider `CC(C)OC1CN(C(=O)NC2CCN(C3COC3)Cc3cc(-c4ccnc(Nc5cnn(C)c5)n4)ccc32)C1` (centres unmarked) [Example I-188, 3-isopropoxy-N-(8-(2-((1-methyl-1H-pyrazol-4-yl)amino)pyrimidin-4-yl)-2-(oxetan-3-yl)-2,3,4,5-tetrahydro-1H-benzo[c]azepin-5-yl)azetidine-1-carboxamide], for which the IC50 on BTK enzyme is < 10 nM; in test [1], 500 to 1500 nM.

Turning to `Cc1cc(-c2ccnc(Nc3cnn(C)c3)n2)ccc1CNC(=O)c1cc2c(s1)CCCO2` [Example I-15, N-(2-methyl-4-(2-((1-methyl-1H-pyrazol-4-yl)amino)pyrimidin-4-yl)benzyl)-6,7-dihydro-5H-thieno[3,2-b]pyran-2-carboxamide], the IC50 at BTK enzyme was < 10 nM; in test [1], < 500 nM.

Take `Cc1cc(-c2ccnc(Nc3cnn4c3CCC4)n2)ccc1CNC(=O)N1CC(OC(C)(C)C)C1` [Example I-322, 3-tert-butoxy-N-[[4-[2-(5,6-dihydro-4H-pyrrolo[1,2-b]pyrazol-3-ylamino)pyrimidin-4-yl]-2-methyl-phenyl]methyl]azetidine-1-carboxamide]: the IC50 at BTK enzyme was < 10 nM; in test [1] it was < 500 nM.

Take `Cc1cc(-c2ccnc(Nc3cnn(CCO)c3)n2)ccc1CNC(=O)N1CC(OC(C)(C)C)C1` [Example I-214, 3-(tert-butoxy)-N-(4-(2-((1-(2-hydroxyethyl)-1H-pyrazol-4-yl)amino)pyrimidin-4-yl)-2-methylbenzyl)azetidine-1-carboxamide]: the IC50 on BTK enzyme is < 10 nM; in test [1], < 500 nM.

Take `Cc1cc(-c2ccnc(Nc3cn[nH]c3)n2)ccc1CNC(=O)c1cnc(C(C)(C)C)s1` [Example I-36, N-(4-(2-((1H-pyrazol-4-yl)amino)pyrimidin-4-yl)-2-methylbenzyl)-2-(tert-butyl)thiazole-5-carboxamide]: the IC50 on BTK enzyme was < 10 nM; in test [1], < 500 nM.

As for `CC(C)OC1CN(C(=O)NC2CCCc3cc(-c4ccnc(Nc5cnn(C6CCN(C)CC6)c5)n4)ccc32)C1` (centres unmarked) [Example I-326, 3-isopropoxy-N-[6-[2-[[1-(1-methyl-4-piperidyl)pyrazol-4-yl]amino]pyrimidin-4-yl]tetralin-1-yl]azetidine-1-carboxamide], the IC50 on BTK enzyme was < 10 nM; in test [1], < 500 nM.

For the molecule `Cc1cc(-c2ccnc(Nc3cnn(C)c3)n2)ccc1CNC(=O)N1CCC(C(C)(C)C)C1` (centres unmarked) [Example I-224, 3-(tert-butyl)-N-(2-methyl-4-(2-((1-methyl-1H-pyrazol-4-yl)amino)pyrimidin-4-yl)benzyl)pyrrolidine-1-carboxamide], the IC50 at BTK enzyme is < 10 nM; in test [1] it was < 500 nM.

For the molecule `Cn1cc(Nc2nccc(-c3ccc4c(c3)CCCC4NC(=O)N3CC(OC(C)(C)C)C3)n2)cn1` (centres unmarked) [Example I-359, 3-tert-butoxy-N-[6-[2-[(1-methylpyrazol-4-yl)amino]pyrimidin-4-yl]tetralin-1-yl]azetidine-1-carboxamide], the results for the IC50 (at BTK enzyme; in test [1]) were < 10 nM and < 500 nM, respectively.

Regarding `CN1CCC(n2cc(Nc3nccc(-c4ccc(CNC(=O)N5CCC(C(C)(C)C)C5)c(C(F)(F)F)c4)n3)cn2)CC1` (centres unmarked) [Example I-298, 3-tert-butyl-N-[[4-[2-[[1-(1-methyl-4-piperidyl)pyrazol-4-yl]amino]pyrimidin-4-yl]-2-(trifluoromethyl)phenyl]methyl]pyrrolidine-1-carboxamide], the IC50 is < 10 nM on BTK enzyme and < 500 nM in test [1].
